The compounds below were run against T1, human vasopressin V1a receptor subtype (Homo sapiens, UniProt P37288) (assay: Vasopressin binding in Chinese Hamster Ovary cell membranes expressing human vasopressin V1a subtype receptors). Conditions: 100 nM, CHO cell membranes, [3H]Manning ligand, values without parentheses.
T1 construct: host or cells: CHO cells (pZeoSV vector for the Thibonnier line)
T1 sequence (P37288 whole entry): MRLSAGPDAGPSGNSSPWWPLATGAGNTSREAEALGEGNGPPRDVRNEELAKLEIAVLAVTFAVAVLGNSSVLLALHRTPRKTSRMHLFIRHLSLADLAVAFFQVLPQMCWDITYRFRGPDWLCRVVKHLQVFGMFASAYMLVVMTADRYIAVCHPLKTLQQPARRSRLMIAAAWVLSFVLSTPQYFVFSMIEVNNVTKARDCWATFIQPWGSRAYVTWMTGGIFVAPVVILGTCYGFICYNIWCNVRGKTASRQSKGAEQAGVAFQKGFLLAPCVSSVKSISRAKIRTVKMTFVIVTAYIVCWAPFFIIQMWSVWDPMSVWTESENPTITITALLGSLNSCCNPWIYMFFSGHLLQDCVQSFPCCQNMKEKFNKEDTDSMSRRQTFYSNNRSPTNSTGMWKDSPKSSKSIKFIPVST
How it was run: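 Displacement of [3H]Manning ligand (8 nM working solution) from human V1a receptors in CHO cell membranes, 25–50 μg protein per well. Incubation ran 60 min at room temperature in 50 mM Tris-HCl pH 7.4 with protease inhibitors, followed by filtration and scintillation counting. Results are given as IC50 or percent inhibition.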
COc1ccccc1-c1ccc(C(=O)N2Cc3ccc(C(=O)N[C@@H](Cc4c[nH]cn4)C(N)=O)n3Cc3ccccc32)cc1OC [Example 286, N-[(1S)-2-Amino-1-(1H-imidazol-4-ylmethyl)-2-oxoethyl]-10-[(2,2′-dimethoxy[1,1′-biphenyl]-4-yl)carbonyl]-10,11-dihydro-5H-pyrrolo[2,1-c][1,4]benzodiazepine-3-carboxamide] gave an inhibition at 0.1 µM of 8%.
With COc1cccc(-c2cc(OC)c(C(=O)N3Cc4ccc(C(=O)N[C@@H](Cc5c[nH]cn5)C(N)=O)n4Cc4ccccc43)cc2Cl)c1 [Example 287, N-[(1S)-2-Amino-1-(1H-imidazol-4-ylmethyl)-2-oxoethyl]-10-[(6-chloro-3,3′-dimethoxy[1,1′-biphenyl]-4-yl)carbonyl]-10,11-dihydro-5H-pyrrolo[2,1-c][1,4]benzodiazepine-3-carboxamide] the inhibition at 0.1 µM was 0%.
For COc1ccccc1-c1ccc(C(=O)N2Cc3ccc(C(=O)N[C@@H](Cc4c[nH]cn4)C(N)=O)n3Cc3ccccc32)cc1C [Example 288, N-[(1S)-2-Amino-1-(1H-imidazol-4-ylmethyl)-2-oxoethyl]-10-[(2′-methoxy-2-methyl[1,1′-biphenyl]4-yl)carbonyl]-10,11-dihydro-5H-pyrrolo[2,1-c][1,4]benzodiazepine-3-carboxamide], the inhibition at 0.1 µM was 24%.
COc1cccc(-c2ccc(C(=O)N3Cc4ccc(C(=O)n5ccnc5)n4Cc4ccccc43)cc2C)c1 [Example 289, 1H-Imidazol-1-yl-{10-[(3′-methoxy-2-methyl[1,1′-biphenyl]-4-yl)carbonyl]-10,11-dihydro-5H-pyrrolo[2,1-c][1,4]benzodiazepin-3-yl}methanone] was tested, and the inhibition at 0.1 µM was 6%.
With COc1cc(C(=O)N2Cc3ccc(C(=O)n4ccnc4)n3Cc3ccccc32)ccc1-c1ccccc1C [Example 290, 1H-Imidazol-1-yl-{10-[(2-methoxy-2′-methyl[1,1′-biphenyl]-4-yl)carbonyl]-10,11-dihydro-5H-pyrrolo[2,1-c][1,4]benzodiazepin-3-yl}methanone] the inhibition at 0.1 µM was 47%.
Work on COc1cc(C(=O)N2Cc3ccc(C(=O)n4ccnc4)n3Cc3ccccc32)ccc1-c1cccc2ccccc12 [Example 291, 1H-Imidazol-1-yl-{10-[3-methoxy-4-(1-naphthyl)benzoyl]-10,11-dihydro-5H-pyrrolo[2,1-c][1,4]benzodiazepin-3-yl}methanone] yielded an inhibition at 0.1 µM of 2%.
Work on COc1ccccc1-c1ccc(C(=O)N2Cc3ccc(C(=O)n4ccnc4)n3Cc3ccccc32)cc1C [Example 292, 1H-Imidazol-1-yl-{10-[(2′-methoxy-2-methyl[1,1′-biphenyl]-4-yl)carbonyl]-10,11-dihydro-5H-pyrrolo[2,1-c][1,4]benzodiazepin-3-yl}methanone] yielded an inhibition at 0.1 µM of 6%.
COc1ccccc1-c1ccc(C(=O)N2Cc3ccc(C(=O)n4ccnc4)n3Cc3ccccc32)cc1OC [Example 293, {10-[(2,2′-Dimethoxy[1,1′-biphenyl]-4-yl)carbonyl]-10,11-dihydro-5H-pyrrolo[2,1-c][1,4]benzodiazepin-3-yl}(1H-imidazol-1-yl)methanone] showed an inhibition at 0.1 µM of 2%.
For Cc1cc(C(=O)N2Cc3ccc(C(=O)n4ccnc4)n3Cc3ccccc32)ccc1-c1ccccc1C(F)(F)F [Example 294, 1H-Imidazol-1-yl(10-{[2-methyl-2′-(trifluoromethyl)[1,1′-biphenyl]-4-yl]carbonyl}-10,11-dihydro-5H-pyrrolo[2,1-c][1,4]benzodiazepin-3-yl)methanone], the inhibition at 0.1 µM was -3%.
Work on COc1ccccc1-c1ccc(C(=O)N2Cc3ccc(C(=O)N[C@@H]4CN5CCC4CC5)n3Cc3ccccc32)cc1C [Example 295, N-[(3S)-1-Azabicyclo[2.2.2]oct-3-yl]-10-[(2′-methoxy-2-methyl[1,1′-biphenyl]-4-yl)carbonyl]-10,11-dihydro-5H-pyrrolo[2,1-c][1,4]benzodiazepine-3-carboxamide] yielded an inhibition at 0.1 µM of 6%.
